Literature values in patent US5559147A, “Aromatic fluorine-containing organotin compounds and anti-tumour composition” (Pharmachemie B.V., priority 1994, dated 1996).

Assays:
[1] = system: two human tumour cell lines, MCF-7 and WiDR; conditions: in words
MCF-7, a mammary tumour = conditions: earlier work
WiDR, a colon carcinoma = conditions: earlier work

Molecule	ID50 compared with reference drug [1]	ID50 (MCF-7, a mammary tumour)	ID50 (WiDR, a colon carcinoma)
{(4-F-C6 H4 CO2 SnBu2)2 O}2	comparable to those observed for etoposide	0.081 µg/mL	0.36 µg/mL
{(2,3,4,5-F4 C6 HCO2 SnBu2)2 O}2	–	0.035 µg/mL	0.25 µg/mL
{(4-F-C6 H4 CH2 CO2 SnBu2)2 O}2	–	0.038 µg/mL	0.268 µg/mL
{(2,3-F2 C6 H3 CO2 SnBu2)2 O}2	comparable to mitomycin C	0.009 µg/mL	0.12 µg/mL
CCC[CH2][Sn]([CH2]CCC)([O]C(=O)c1ccc(F)cc1)[O]C(=O)c1ccc(F)cc1 [(4-F-C6 H4 CO2)2 SnBu2]	comparable to those observed for etoposide	0.09 µg/mL	0.309 µg/mL
{(2,3,6-F3 C6 H3 CO2 SnBu2)2 O}2	–	0.013 µg/mL	0.2 µg/mL
CCC[CH2][Sn+2][CH2]CCC.O=C([O-])c1c(F)c(F)c(F)c(F)c1C(=O)[O-] [Di-n-butyltintetrafluorophthalate]	–	0.051 µg/mL	0.068 µg/mL
CCC[CH2][Sn]([CH2]CCC)([O]C(=O)c1cccc(F)c1F)[O]C(=O)c1cccc(F)c1F [(2,3-F2 C6 H3 CO2)2 SnBu2]	comparable to mitomycin C	0.023 µg/mL	0.283 µg/mL
{(2-F-C6 H4 CH=CHC2 SnBu2)2 O}2	–	0.028 µg/mL	0.368 µg/mL
